Measurements reported in the NIST ThermoML archive (doi:10.1021/je300584m).
Where “and” joins values, the source holds several entries; their conditions need not be identical. Identical values can stand only once.

Assays:
[1] = for Normal melting temperature: DTA
[2] = Molar enthalpy of transition or fusion; settings: Crystal; DSC

O=C1c2ccccc2-c2ccccc21 [9(9H)-fluorenone]
vapor or sublimation pressure [kPa], [1]
Settings | Crystal | Liquid
312.19 K, Calculated from knudsen effusion weight loss | 8.9e-05 | –
314.21 K, Calculated from knudsen effusion weight loss | 0.000115 | –
316.11 K, Calculated from knudsen effusion weight loss | 0.000143 | –
318.18 K, Calculated from knudsen effusion weight loss | 0.00018 | –
320.2 K, Calculated from knudsen effusion weight loss | 0.000225 | –
322.11 K, Calculated from knudsen effusion weight loss | 0.000273 | –
324.19 K, Calculated from knudsen effusion weight loss | 0.000344 | –
326.19 K, Calculated from knudsen effusion weight loss | 0.00043 | –
326.88 K, Closed cell (Static) method | 0.00045 | –
327.85 K, Closed cell (Static) method | – | 0.0008
328.11 K, Calculated from knudsen effusion weight loss | 0.000528 | –
328.32 K, Closed cell (Static) method | 0.00053 | –
329.82 K, Closed cell (Static) method | – | 0.00095
329.83 K, Closed cell (Static) method | 0.00061 | –
330.18 K, Calculated from knudsen effusion weight loss | 0.000638 | –
331.3 K, Closed cell (Static) method | 0.00072 | –
331.79 K, Closed cell (Static) method | – | 0.00112
332.18 K, Calculated from knudsen effusion weight loss | 0.000796 | –
332.81 K, Closed cell (Static) method | 0.00085 | –
333.8 K, Closed cell (Static) method | – | 0.00133
334.1 K, Calculated from knudsen effusion weight loss | 0.000977 | –
334.29 K, Closed cell (Static) method | 0.00098 | –
335.78 K, Closed cell (Static) method | 0.00113 | 0.00159
337.25 K, Closed cell (Static) method | 0.00133 | –
337.74 K, Closed cell (Static) method | – | 0.00185
338.75 K, Closed cell (Static) method | 0.00153 | –
339.72 K, Closed cell (Static) method | – | 0.00217
340.21 K, Closed cell (Static) method | 0.00177 | –
341.69 K, Closed cell (Static) method | 0.00205 | –
341.76 K, Closed cell (Static) method | – | 0.00258
343.19 K, Closed cell (Static) method | 0.00235 | –
343.72 K, Closed cell (Static) method | – | 0.00299
344.68 K, Closed cell (Static) method | 0.00272 | –
345.66 K, Closed cell (Static) method | – | 0.00348
346.2 K, Closed cell (Static) method | 0.00311 | –
347.68 K, Closed cell (Static) method | 0.00355 | 0.00409
349.17 K, Closed cell (Static) method | 0.00409 | –
349.66 K, Closed cell (Static) method | – | 0.00468
350.65 K, Closed cell (Static) method | 0.00467 | –
351.63 K, Closed cell (Static) method | – | 0.00545
352.14 K, Closed cell (Static) method | 0.00544 | –
353.63 K, Closed cell (Static) method | – | 0.0063
355.58 K, Closed cell (Static) method | – | 0.00731
357.59 K, Closed cell (Static) method | – | 0.0084
359.82 K, Closed cell (Static) method | – | 0.00981
361.57 K, Closed cell (Static) method | – | 0.01112
361.59 K, Closed cell (Static) method | – | 0.01107
363.79 K, Closed cell (Static) method | – | 0.01285
365.52 K, Closed cell (Static) method | – | 0.01446
367.74 K, Closed cell (Static) method | – | 0.01661
369.53 K, Closed cell (Static) method | – | 0.01887
371.72 K, Closed cell (Static) method | – | 0.02159
373.53 K, Closed cell (Static) method | – | 0.02435
375.67 K, Closed cell (Static) method | – | 0.02768
377.47 K, Closed cell (Static) method | – | 0.03128
379.65 K, Closed cell (Static) method | – | 0.03529
381.4 K, Closed cell (Static) method | – | 0.03955
383.6 K, Closed cell (Static) method | – | 0.04451
385.47 K, Closed cell (Static) method | – | 0.05021
387.56 K, Closed cell (Static) method | – | 0.05645
391.51 K, Closed cell (Static) method | – | 0.07082
393.41 K, Closed cell (Static) method | – | 0.07755
395.41 K, Closed cell (Static) method | – | 0.08762
397.36 K, Closed cell (Static) method | – | 0.09675
399.35 K, Closed cell (Static) method | – | 0.1089
401.32 K, Closed cell (Static) method | – | 0.1202
403.3 K, Closed cell (Static) method | – | 0.1342
406.25 K, Closed cell (Static) method | – | 0.1558
407.26 K, Closed cell (Static) method | – | 0.1646
409.18 K, Closed cell (Static) method | – | 0.1808
411.21 K, Closed cell (Static) method | – | 0.2014
413.17 K, Closed cell (Static) method | – | 0.2206
415.17 K, Closed cell (Static) method | – | 0.244
417.11 K, Closed cell (Static) method | – | 0.2679
419.13 K, Closed cell (Static) method | – | 0.2948
421.06 K, Closed cell (Static) method | – | 0.3242
423.04 K, Closed cell (Static) method | – | 0.355
425 K, Closed cell (Static) method | – | 0.3873
427.02 K, Closed cell (Static) method | – | 0.4288
428.95 K, Closed cell (Static) method | – | 0.467
430.77 K, Closed cell (Static) method | – | 0.511
432.92 K, Closed cell (Static) method | – | 0.5574
434.9 K, Closed cell (Static) method | – | 0.604
436.86 K, Closed cell (Static) method | – | 0.6602
438.87 K, Closed cell (Static) method | – | 0.7204
440.85 K, Closed cell (Static) method | – | 0.7844

Settings | Normal melting temperature [°C]
[1], Crystal | 83.01

Settings | Molar enthalpy of transition or fusion [kcal/mol]
[2] | 4.21

OC1c2ccccc2-c2ccccc21 [9H-fluoren-9-ol]
[1]
Settings | vapor or sublimation pressure
337.16 K, Crystal, Calculated from knudsen effusion weight loss | 0.000106 kPa
339.13 K, Crystal, Calculated from knudsen effusion weight loss | 0.000132 kPa
341.1 K, Crystal, Calculated from knudsen effusion weight loss | 0.000163 kPa
343.16 K, Crystal, Calculated from knudsen effusion weight loss | 0.000196 kPa
345.09 K, Crystal, Calculated from knudsen effusion weight loss | 0.000243 kPa
347.09 K, Crystal, Calculated from knudsen effusion weight loss | 0.000307 kPa
349.15 K, Crystal, Calculated from knudsen effusion weight loss | 0.000385 kPa
350.76 K, Crystal, Closed cell (Static) method | 0.00051 kPa
351.11 K, Crystal, Calculated from knudsen effusion weight loss | 0.00047 kPa
352.75 K, Crystal, Closed cell (Static) method | 0.00062 kPa
353.11 K, Crystal, Calculated from knudsen effusion weight loss | 0.000579 kPa
354.71 K, Crystal, Closed cell (Static) method | 0.00075 kPa
355.1 K, Crystal, Calculated from knudsen effusion weight loss | 0.00071 kPa
356.59 K, Crystal, Closed cell (Static) method | 0.00092 kPa
357.09 K, Crystal, Calculated from knudsen effusion weight loss | 0.000884 kPa
358.67 K, Crystal, Closed cell (Static) method | 0.00113 kPa
359.09 K, Crystal, Calculated from knudsen effusion weight loss | 0.001078 kPa
360.98 K, Crystal, Closed cell (Static) method | 0.00139 kPa
362.63 K, Crystal, Closed cell (Static) method | 0.00165 kPa
364.58 K, Crystal, Closed cell (Static) method | 0.00198 kPa
366.55 K, Crystal, Closed cell (Static) method | 0.00238 kPa
368.53 K, Crystal, Closed cell (Static) method | 0.0029 kPa
370.51 K, Crystal, Closed cell (Static) method | 0.00343 kPa
372.48 K, Crystal, Closed cell (Static) method | 0.00418 kPa
372.51 K, Crystal, Closed cell (Static) method | 0.00419 kPa
374.53 K, Crystal, Closed cell (Static) method | 0.00504 kPa
376.49 K, Crystal, Closed cell (Static) method | 0.00599 kPa
378.48 K, Crystal, Closed cell (Static) method | 0.00711 kPa
380.44 K, Crystal, Closed cell (Static) method | 0.00855 kPa
382.39 K, Crystal, Closed cell (Static) method | 0.01001 kPa
384.38 K, Crystal, Closed cell (Static) method | 0.01183 kPa
386.35 K, Crystal, Closed cell (Static) method | 0.01393 kPa
388.32 K, Crystal, Closed cell (Static) method | 0.01662 kPa
390.28 K, Crystal, Closed cell (Static) method | 0.0195 kPa
392.27 K, Crystal, Closed cell (Static) method | 0.02263 kPa
394.22 K, Crystal, Closed cell (Static) method | 0.02684 kPa
396.22 K, Crystal, Closed cell (Static) method | 0.03155 kPa
398.16 K, Crystal, Closed cell (Static) method | 0.03678 kPa
400.1 K, Crystal, Closed cell (Static) method | 0.04277 kPa
402.11 K, Crystal, Closed cell (Static) method | 0.05007 kPa
404.04 K, Crystal, Closed cell (Static) method | 0.05782 kPa
406.06 K, Crystal, Closed cell (Static) method | 0.06738 kPa
407.96 K, Crystal, Closed cell (Static) method | 0.07784 kPa
409.98 K, Liquid, Closed cell (Static) method | 0.1186 kPa
410 K, Crystal, Closed cell (Static) method | 0.09038 kPa
411.89 K, Crystal, Closed cell (Static) method | 0.104 kPa
411.93 K, Liquid, Closed cell (Static) method | 0.1331 kPa
413.86 K, Crystal, Closed cell (Static) method | 0.1211 kPa
413.91 K, Liquid, Closed cell (Static) method | 0.15 kPa
415.85 K, Crystal, Closed cell (Static) method | 0.1377 kPa
415.88 K, Liquid, Closed cell (Static) method | 0.1652 kPa
417.82 K, Crystal, Closed cell (Static) method | 0.1592 kPa
417.86 K, Liquid, Closed cell (Static) method | 0.1822 kPa
419.78 K, Crystal, Closed cell (Static) method | 0.1848 kPa
419.81 K, Liquid, Closed cell (Static) method | 0.2047 kPa
421.73 K, Crystal, Closed cell (Static) method | 0.2084 kPa
421.79 K, Liquid, Closed cell (Static) method | 0.2266 kPa
423.71 K, Crystal, Closed cell (Static) method | 0.2411 kPa
423.75 K, Liquid, Closed cell (Static) method | 0.2538 kPa
425.74 K, Liquid, Closed cell (Static) method | 0.2828 kPa
427.7 K, Liquid, Closed cell (Static) method | 0.3131 kPa and 0.3096 kPa
429.67 K, Liquid, Closed cell (Static) method | 0.3457 kPa
431.58 K, Liquid, Closed cell (Static) method | 0.3815 kPa
431.6 K, Liquid, Closed cell (Static) method | 0.3843 kPa
433.57 K, Liquid, Closed cell (Static) method | 0.4239 kPa
435.51 K, Liquid, Closed cell (Static) method | 0.4605 kPa
435.52 K, Liquid, Closed cell (Static) method | 0.4642 kPa
437.51 K, Liquid, Closed cell (Static) method | 0.5099 kPa
439.47 K, Liquid, Closed cell (Static) method | 0.5625 kPa
441.42 K, Liquid, Closed cell (Static) method | 0.615 kPa

Settings | Normal melting temperature [°C]
[1], Crystal | 155.6

Settings | Molar enthalpy of transition or fusion [kcal/mol]
[2] | 5.78
